Target: T1, SGSH (sulfamidase; N-sulfoglucosamine sulfohydrolase) (Homo sapiens, UniProt P51688)
T1 construct: full-length cDNA with C-terminal RSHHHHHH (residues 503-510), tag kept; secreted from HEK 293 cells, HisTrap purified; signal peptide removed (modelled from residue 21/22); glycosylated; Cys70 converted to formylglycine; homodimer, 55 kDa unglycosylated subunit
T1 sequence (P51688 21-502): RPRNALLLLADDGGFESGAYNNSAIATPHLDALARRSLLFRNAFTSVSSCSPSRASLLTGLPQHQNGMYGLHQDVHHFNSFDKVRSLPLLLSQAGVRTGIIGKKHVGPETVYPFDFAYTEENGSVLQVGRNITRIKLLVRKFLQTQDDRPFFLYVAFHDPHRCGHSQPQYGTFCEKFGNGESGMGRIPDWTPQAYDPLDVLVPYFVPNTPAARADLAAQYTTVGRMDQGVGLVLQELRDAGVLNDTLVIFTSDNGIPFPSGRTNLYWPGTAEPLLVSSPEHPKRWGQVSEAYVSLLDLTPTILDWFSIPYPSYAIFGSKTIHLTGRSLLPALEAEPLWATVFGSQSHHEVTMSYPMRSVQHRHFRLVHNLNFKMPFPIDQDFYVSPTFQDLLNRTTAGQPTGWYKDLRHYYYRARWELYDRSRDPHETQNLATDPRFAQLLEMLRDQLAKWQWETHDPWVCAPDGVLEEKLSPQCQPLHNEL
Test: two-step fluorometric assay with MU-alphaGlcNS, alpha-glucosidase coupled
Type: biochemical

Compound	IC50 [µM]
O=P(O)(O)O [phosphate]	1000
O=S(=O)(O)O [sulfate]	5000

Reference: article PMC4014121, “Structure of sulfamidase provides insight into the molecular pathology of mucopolysaccharidosis IIIA” (Acta Crystallographica Section D: Biological Crystallography, 2014)
